Tests used:
[1] = target: T1, α-syn (Homo sapiens, UniProt P37840); assay: ThT fluorescence assay of unseeded α-syn fibrillation in the presence of peptides; format: biochemical; conditions: 1 mg/ml α-syn, 0–0.5 mg/ml peptide, 48 h
T1 construct: made in house; host or cells: Escherichia coli BL21 (DE3), plasmid pET11-D
Method: To test the effects of these selected nine peptides on the aggregation of α-syn, we performed a thioflavin T (ThT) fluorescence assay in the presence of 1 mg/ml α-syn and 0 to 0.5 mg/ml peptide for 48 h (raw data in Fig. S3). Furthermore, the peptides alone were monitored for self-fibrillation. […] High concentrations of p222, p194, and p249 led to a decline in ThT fluorescence after reaching a plateau, possibly because of the formation of insoluble amorphous species. We also carried out seeding experiments by adding 5% sonicated preaggregated α-syn fibrils to the ThT assay.
About 150 μl of 70 μM (1 mg/ml) α-syn, 40 μM ThT, and varying amounts of peptides (0, 0.06, 0.125, 0. 25, 0.375, and 0.5 mg/ml) were transferred in triplicates to a black COSTAR 96-well clear bottom plate (Nunc, Thermo Fisher Scientific), and including a 3 mm diameter glass bead (Glaswarenfabrik Karl Hecht GmbH & Co KG) per well to increase reproducibility ([100]). The plate was sealed with Crystal Clear sealing tape (Hampton Research) and incubated at 37 °C in a CLARIOstar Plus (BMG LABTECH) fluorescence plate reader. Fibrillation was carried out for ∼48 h with 300 rpm double orbital shaking between the readings for 372 s (excitation/emission: 448∕485 nm). Seeding experiments were performed using the same setting as for the fibrillation assay as described ([39]). Briefly, the experiments were done in triplicates in the presence of 0.05 mg/ml of α-syn fibril seeds (5% seeding) and 1 mg/ml of peptides in a solution of 1 mg/ml α-syn in 96-well plates.

[2] = target: T1, α-syn; assay: SDS-PAGE of soluble α-syn left in supernatant after fibrillation; format: biochemical; conditions: SDS-PAGE after centrifugation of fibrillated samples
Method: Overall, there was a reasonable but not perfect correspondence between SDS-PAGE and ThT data.
To determine the amount of soluble α-syn, fibrillated samples were centrifuged (13,000 rpm, 15 min) and the supernatants were loaded on Bis–Tris 15% acrylamide gel with prestained protein ladder (Thermo Scientific) and run in a Bis–Tris running buffer at 150 V for 70 min, stained for 20 min in Coomassie brilliant blue (1.2 mM Coomassie brilliant blue, 5% ethanol, and 7% acetic acid), and destained overnight in a destaining solution (5% ethanol and 5% acetic acid). Gel bands were quantified using ImageJ.

[3] = target: T1, α-syn; assay: ATR–FTIR of fibrillated α-syn–peptide samples; format: biochemical; conditions: for ATR–FTIR (amyloid structures): fibrillated samples after washing, versus α-syn alone; for Amount of amyloid structures (ATR–FTIR), in words: fibrillated α-syn samples in the presence of peptides
Description: (§1) To analyze the secondary structure of the final aggregates, we recorded far-UV CD and attenuated total reflectance (ATR)–FTIR spectra for fibrillated samples after washing to remove free α-syn and peptides. […] Overall, as the concentration of peptides increases, the intensity of signal at 218 nm decreases (Fig. 4A). We observed that α-syn fibrils formed in the presence of p194, p222, p235, and p249 precipitated rapidly after mixing with these peptides. This likely gives rise to light scattering, which reduces CD signals. To overcome these artifacts, we turned to ATR–FTIR spectroscopy, which is not sensitive to scattering. […] Both far-UV CD and ATR–FTIR spectroscopy confirm extensive β-sheet structure. However, in the presence of peptides, some structural changes were observed as reflected by the decrease in the amyloid cross β-sheet structure at ∼1629 cm^−1 and increases in the random and coil structures (∼1656 and ∼1676 cm^−1, respectively) (Table 2). […] Taking all together, ATR–FTIR data are in reasonable agreement with far-UV CD.
The samples prepared in the CD section were also used to measure FTIR spectra on a Tensor 27 FTIR spectrophotometer (Bruker). About 2 μl α-syn fibrils were dried on the ATR crystal with a gentle stream of nitrogen gas. Spectra were accumulations of 68 scans in the 4000 to 1000 cm^−1 range. Baseline correlation, second derivative, and atmospheric compensation were performed with OPUS 5.5 software (Bruker, Germany). Signals in the amide I region (∼1550–1700 cm^−1) were smoothed and deconvoluted with PeakFit, version 4.12 software (ِSystat Software Inc) using Lorentzian fitting.

[4] = target: T1, α-syn; assay: Far-UV CD of fibrillated α-syn–peptide samples; format: biochemical; conditions: fibrillated samples after washing, signal at 218 nm; versus α-syn alone
Description: as §1
To remove free α-syn and peptides, fibrillated samples were centrifuged (13,000 rpm, 15 min). This leaves monomeric α-syn plus unbound and free peptides in the supernatant. The supernatant was discarded, and the pellet was washed two times in the same volume of PBS buffer, pH 7.4, to ensure complete removal of monomeric α-syn and free peptides. Far-UV CD spectra were recorded at 25 °C on a Chirascan CD Spectrophotometer (Applied Photophysics) using a 0.1 mm quartz cuvette in the wavelength range of 200 to 260 nm with 1 nm bandwidth and three accumulations. The buffer spectrum was subtracted, and the results were expressed as mean residue ellipticity [θ] (deg cm^2 dmol^−1).

[5] = target: T1, α-syn; assay: TEM of α-syn aggregates formed with peptides; format: biochemical; conditions: α-syn incubated in the presence of peptide
Method: Five microliters of each fibril-containing solution were applied to 400-mesh carbon-coated and glow-discharged nickel grids for 30 s, and blotted with filter paper to remove excess sample. The grids were washed with one drop of double distilled water and then stained with 3 μl of 1% uranyl formate for 15 s. Excess stain was removed by blotting paper This step was repeated two more times. Finally, the grids were left to air dry and viewed on a Tecnai G2 Spirit (FEI Company) operating at 60 kV, and images were taken using a TemCam F416 camera (TVIPS).

[6] = Calcein release assay, substance alone; conditions: for Permeabilization of lipid vesicles by peptide alone: calcein-loaded DOPG vesicles, 10^−6 to 10^−1 mg/ml peptide, 37 °C, triplicate
Method: (§2) αSOs show cytotoxic properties, which have been attributed to their membrane-disrupting ability ([69]). To examine the effect of peptides on membrane permeabilization by αSOs, we used a simple calcein release assay. αSOs, peptides, and aSO–peptide mixtures at 10^−6 to 10^−1 mg/ml peptide were added to calcein-loaded DOPG vesicle, and the extent of calcein release was monitored for 30 min by the increase in fluorescence as calcein leaks out upon membrane permeabilization, leading to dilution and the loss of self-quenching. The time-dependent calcein release data from DOPG vesicles ([70], [71]) in the presence of peptides, αSOs, and αSO–peptides are shown in Figs. S9 and S10. In order to allow easy comparison of all peptides, the calcein release versus concentration (peptides and αSOs) were plotted at the plateau point of release (Fig. 5, A–C). […] Figure 5D compares calcein release percentages of data represented in Figure 5, A and B at peptide concentrations between 0.001 and 0.1 mg/ml, where we see the largest extent of calcein release in general.
(§3) Calcein-filled vesicles of DOPG were prepared as described before ([38]). Briefly, DOPG was dissolved in PBS to […], in the presence of calcein at self-quenching concentrations (70 mM) and subjected to 10 freeze–thaw cycles between liquid nitrogen and a 50 °C water bath. After 21 times extrusion through a 100 nm filter, free calcein was separated from vesicles with a PD-10 desalting column (GE Healthcare). Vesicles were stored at 4 °C and used for calcein release assays within 24 h.
(§4) Calcein release was measured by mixing peptides and/or αSOs at a final concentration of 10^−6 to 10^−1 mg/ml and 5.2 μg/ml, respectively, in 148 μl with 2 μl of calcein vesicles, and were then loaded onto a 96-well plate (Nunc, Thermo Fischer Scientific) in triplicate. The plate was sealed with Crystal clear sealing tape (Hampton Research), and fluorescence was measured (excitation: 485 nm and emission: 520 nm) for 1 h at 37 °C every 2 min with a 2 s autoshake before each reading on a fluorescence plate reader (Tecan). Finally, 2 μl Triton X-100 (0.2% [v/v]) was added to lyse vesicles, and the maximal fluorescence signal was measured for 20 min under the same reading condition. Background fluorescence was subtracted, and the average signal of calcein release before addition of Triton X-100 (F), after treatment with Triton X-100 (Ft) and for the buffer control (F0) were determined, and calcein release percentage was calculated as follow (Equation 1):(1) CalceinRelease%(CR%)=(F−F0)/(Ft−F0)

[7] = target: T2, αSOs (Homo sapiens, UniProt P37840); assay: Calcein release assay, αSOs together with peptides; format: biochemical; conditions: αSOs at calcein^50% (5.2 μg/ml)
T2 construct: made in house; host or cells: Escherichia coli BL21 (DE3); oligomers formed by shaking the monomer and isolated by SEC (Superose 6)
Method: as §2, §3, §4

[8] = test system: Aβ; conditions: cited from earlier work
Description: Penetratin is a widely used CPP. Translocation of full-length and N-terminal truncated ([82]) penetratin has been observed in all cell types, and it is also able to cross the blood–brain barrier (BBB) ([83]). Its mechanism of translocation in live cells is complex and involves structural changes from random coil to α-helix ([84]) and transient formation of tubes or inverted micelles in the membrane that entrap the peptide in its interior. […]. The presence of Trp and net positively charged amino acid residues are important for formation of inverted ...

MKGLSKAKEGVVAA [p5]
Effect on α-syn aggregation (ThT), in words [1]: did not change the lag phase duration
Amount of soluble α-syn monomer left in the supernatant, in words [2]: do not affect the amount of monomer left in the supernatant
ATR–FTIR (amyloid structures) [3]: ↓ amyl
Amount of amyloid structures (ATR–FTIR), in words [3]: slightly decreased the amount of amyloid
Far-UV CD (β-sheet structures) [4]: ↓β
Morphology of α-syn aggregates (TEM), in words [5]: did not cause any significant change in morphology
Permeabilization of lipid vesicles by peptide alone [6]: did not permeabilize lipid vesicles
Effect on vesicle permeabilization by αSOs ([7]; peptide 10^−6 to 10^−1 mg/ml): failed to affect vesicle permeabilization by αSOs

RQIKIWFQNRRMLWLXaa [pAntp]
Inhibition of amyloid aggregate formation (Aβ fibrillation) [8]: particularly effective inhibitors

SASDSRTFKSSGG [p162]
Effect on α-syn aggregation (ThT), in words [1]: did not change the lag phase duration
Amount of soluble α-syn monomer left in the supernatant, in words [2]: do not affect the amount of monomer left in the supernatant
Amount of amyloid structures (ATR–FTIR), in words [3]: slightly decreased the amount of amyloid
Far-UV CD (β-sheet structures) [4]: ↓β
Morphology of α-syn aggregates (TEM), in words [5]: did not cause any significant change in morphology
Permeabilization of lipid vesicles by peptide alone [6]: did not permeabilize lipid vesicles
Effect on vesicle permeabilization by αSOs ([7]; peptide 10^−6 to 10^−1 mg/ml): failed to affect vesicle permeabilization by αSOs

RQIKIWFQARRMKWKK [p194, Ala scan variant of penetratin]
Effect on α-syn aggregation (ThT), in words [1]: inhibitory effect
ThT signal end level ([1]; unseeded ThT, 37 °C, versus α-syn alone): ↓↓
ATR–FTIR (amyloid structures) [3]: ↓↓↓ amyl
Amount of amyloid structures (ATR–FTIR), in words [3]: decreased
Far-UV CD (β-sheet structures) [4]: ↓↓↓β
Morphology of α-syn aggregates (TEM), in words [5]: nonfibrillar (amorphous) accumulations
Peptide concentration from which membrane toxicity is shown ([6]; peptide alone, calcein-filled DOPG LUVs, tested range 10^−1–10^−6 mg/ml): > 10^−2 mg/ml
Effect on vesicle permeabilization by αSOs ([7]; peptide 0.1 mg/ml): increased vesicle permeabilization by αSOs

RQILIWFQNRRMLWLL [pAntp-BSB1]
Inhibition of amyloid aggregate formation (Aβ fibrillation) [8]: particularly effective inhibitors

KEGVVAAAEKTKQG [p12]
Effect on α-syn aggregation (ThT), in words [1]: did not change the lag phase duration
Amount of soluble α-syn monomer left in the supernatant, in words [2]: do not affect the amount of monomer left in the supernatant
ATR–FTIR (amyloid structures) [3]: ↓ amyl
Amount of amyloid structures (ATR–FTIR), in words [3]: did not show significant changes in FTIR spectra
Far-UV CD (β-sheet structures) [4]: ↓β
Morphology of α-syn aggregates (TEM), in words [5]: did not cause any significant change in morphology
Permeabilization of lipid vesicles by peptide alone [6]: did not permeabilize lipid vesicles
Effect on vesicle permeabilization by αSOs ([7]; peptide 10^−6 to 10^−1 mg/ml): failed to affect vesicle permeabilization by αSOs
